Reference: ChEMBL document CHEMBL4715696, “In vitro synergistic anticancer activity of the combination of T-type calcium channel blocker and chemotherapeutic agent in A549 cells” (Bioorg Med Chem Lett, 2016)

What was measured:
A549 [1] = assay: Potentiation of etoposide-induced cell cycle arrest in human A549 cells assessed as accumulation at S phase at 2.5 uM in presence of etoposide after 48 hrs by flow cytometric analysis (Rvb =12.3%); format: functional
A549 [2] = assay: Decrease in cell cycle associated protein expression in human A549 cells assessed as fold change in cyclin D3 expression at 10 uM after 48 hrs by Western blot analysis (reference value: 0.73 to 1.09); format: functional
A549 [3] = assay: Decrease in cell cycle associated protein expression in human A549 cells assessed as reduction in CDK2 expression after 48 hrs by Western blot analysis; format: functional, cell-based; settings: dose 2.5-10 µM
A549 [4] = assay: Potentiation of cisplatin-induced cell cycle arrest in human A549 cells assessed as accumulation at sub G1 phase at 10 uM in presence of cisplatin after 48 hrs by flow cytometric analysis (reference value: 17%); format: functional
A549 [5] = assay: Decrease in cell cycle associated protein expression in human A549 cells assessed as reduction in CDK6 expression at 10 uM by Western blot analysis; format: functional, cell-based; settings: time 6-48 hrs, TDE = time-dependent effect
A549 [6] = assay: Decrease in cell cycle associated protein expression in human A549 cells assessed as fold change in cyclin D2 expression at 10 uM after 24 hrs by Western blot analysis (reference value: 0.77); format: functional
A549 [7] = assay: Potentiation of cisplatin-induced cell cycle arrest in human A549 cells assessed as accumulation at sub G1 phase at 5 uM in presence of cisplatin after 48 hrs by flow cytometric analysis (reference value: 17%); format: functional
A549 [8] = assay: Decrease in cell cycle associated protein expression in human A549 cells assessed as reduction in CDK4 expression at 10 uM by Western blot analysis; format: functional, cell-based; settings: time 6-48 hrs, TDE = time-dependent effect
A549 [9] = assay: Decrease in cell cycle associated protein expression in human A549 cells assessed as fold change in CDK6 expression at 10 uM after 36 hrs by Western blot analysis (reference value: 0.7); format: functional
CYP3A4 = CYP3A4 (Homo sapiens, UniProt P08684); assay: Inhibition of human CYP3A4 assessed as residual activity at 10 uM measured after 15 mins relative to control; format: ADME; settings: read-out: Activity
CYP3A4, sequence (P08684 whole entry): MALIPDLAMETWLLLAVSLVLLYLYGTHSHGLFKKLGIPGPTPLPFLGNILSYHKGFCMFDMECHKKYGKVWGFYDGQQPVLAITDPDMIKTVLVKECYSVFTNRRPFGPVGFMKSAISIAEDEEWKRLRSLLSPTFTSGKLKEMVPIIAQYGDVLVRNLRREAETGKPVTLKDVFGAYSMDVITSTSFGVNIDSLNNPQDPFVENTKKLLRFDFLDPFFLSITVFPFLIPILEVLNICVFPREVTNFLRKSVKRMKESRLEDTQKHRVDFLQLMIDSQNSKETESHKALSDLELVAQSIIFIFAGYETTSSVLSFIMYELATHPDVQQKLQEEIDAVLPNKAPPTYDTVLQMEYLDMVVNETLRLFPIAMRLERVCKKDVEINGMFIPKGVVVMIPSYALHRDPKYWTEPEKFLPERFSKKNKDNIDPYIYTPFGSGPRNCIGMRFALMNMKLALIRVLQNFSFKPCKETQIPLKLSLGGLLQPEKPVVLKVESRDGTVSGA

[10] = Upregulation of p27KIP1 protein expression in human A549 cells assessed as fold change in expression at 10 uM after 24 hrs by Western blot analysis (reference value: 0.83); format: functional
A549 [11] = assay: Induction of cell cycle arrest in human A549 cells assessed as accumulation at G2/M phase at 5 uM after 48 hrs by flow cytometric analysis (reference value: 22.1 to 25.4 %); format: functional
A549 [12] = assay: Decrease in cell cycle associated protein expression in human A549 cells assessed as fold change in cyclin D3 expression at 10 uM after 24 hrs by Western blot analysis (reference value: 1.09); format: functional
A549 [13] = assay: Potentiation of etoposide-induced cell cycle arrest in human A549 cells assessed as accumulation at G2/M phase at 2.5 uM in presence of etoposide after 48 hrs by flow cytometric analysis (Rvb =18.9%); format: functional
A549 [14] = assay: Upregulation of p27KIP1 protein expression in human A549 cells at 10 uM by Western blot analysis; format: functional, cell-based; settings: time 6-48 hrs, TDE = time-dependent effect
A549 [15] = assay: Decrease in cell cycle associated protein expression in human A549 cells assessed as fold change in CDK2 expression at 10 uM after 36 hrs by Western blot analysis (reference value: 0.79); format: functional
A549 [16] = assay: Potentiation of etoposide-induced cell cycle arrest in human A549 cells assessed as accumulation at G1 phase at 10 uM in presence of etoposide after 48 hrs by flow cytometric analysis (reference value: 36%); format: functional
A549 [17] = assay: Decrease in cell cycle associated protein expression in human A549 cells assessed as fold change in CDK4 expression at 10 uM after 12 hrs by Western blot analysis (reference value: 0.87); format: functional
A549 [18] = assay: Potentiation of cisplatin-induced cell cycle arrest in human A549 cells assessed as accumulation at S phase at 2.5 uM in presence of cisplatin after 48 hrs by flow cytometric analysis (Rvb =15.8%); format: functional
A549 [19] = assay: Potentiation of cisplatin-induced cell cycle arrest in human A549 cells assessed as accumulation at sub G1 phase at 2.5 uM in presence of cisplatin after 48 hrs by flow cytometric analysis (reference value: 17%); format: functional
A549 [20] = assay: Induction of cell cycle arrest in human A549 cells assessed as accumulation at S phase at 2.5 uM after 48 hrs by flow cytometric analysis (Rvb =10.4%); format: functional
[21] = Upregulation of p27KIP1 protein expression in human A549 cells assessed as fold change in expression at 10 uM after 6 hrs by Western blot analysis (reference value: 0.83); format: functional
A549 [22] = assay: Potentiation of etoposide-induced cell cycle arrest in human A549 cells assessed as accumulation at sub G1 phase at 2.5 uM in presence of etoposide after 48 hrs by flow cytometric analysis (Rvb =33 %); format: functional
A549 [23] = assay: Cytotoxicity against human A549 cells assessed as reduction in cell viability by MTT assay; format: functional, cell-based
[24] = Protein binding in human plasma at 10 uM after 4 hrs; format: ADME, cell-free; settings: read-out: PPB (converted)
A549 [25] = assay: Potentiation of etoposide-induced cell cycle arrest in human A549 cells assessed as accumulation at S phase at 10 uM in presence of etoposide after 48 hrs by flow cytometric analysis (Rvb =12.3%); format: functional
A549 [26] = assay: Decrease in cell cycle associated protein expression in human A549 cells assessed as fold change in CDK4 expression at 2.5 uM after 48 hrs by Western blot analysis (reference value: 0.62); format: functional
A549 [27] = assay: Induction of cell cycle arrest in human A549 cells assessed as increase in cell accumulation at G1 phase after 48 hrs by flow cytometric analysis; format: functional, cell-based; settings: dose 2.5-10 µM
A549 [28] = assay: Decrease in cell cycle associated protein expression in human A549 cells assessed as fold change in CDK4 expression at 10 uM after 36 hrs by Western blot analysis (reference value: 0.87); format: functional
[29] = Increase in recruitment of […] p27KIP1 to CDK4 in human A549 cells assessed as fold change at 10 uM incubated for 12 hrs by immunoprecipitation/immunoblot analysis (reference value: 0.16); format: functional
A549 [30] = assay: Decrease in cell cycle associated protein expression in human A549 cells assessed as reduction in CDK4 expression after 48 hrs by Western blot analysis; format: functional, cell-based; settings: dose 2.5-10 µM
[31] = Increase in recruitment of […] p27KIP1 to CDK6 in human A549 cells assessed as fold change at 10 uM incubated for 12 hrs by immunoprecipitation/immunoblot analysis (reference value: 0.56); format: functional
[32] = Upregulation of p27KIP1 protein expression in human A549 cells assessed as fold change in expression at 5 uM after 48 hrs by Western blot analysis (reference value: 0.48); format: functional
A549 [33] = assay: Decrease in cell cycle associated protein expression in human A549 cells assessed as reduction in cyclin D2 expression at 10 uM by Western blot analysis; format: functional, cell-based; settings: time 6-48 hrs, TDE = time-dependent effect
A549 [34] = assay: Decrease in cell cycle associated protein expression in human A549 cells assessed as fold change in cyclin D3 expression at 2.5 uM after 48 hrs by Western blot analysis (reference value: 0.73); format: functional

activity at 0.25 h, 10 µM (CYP3A4): 36.9%
fraction unbound at 4 h, 10 µM [24]: < 0.01
SMILES: CN(C)C(=O)NCCCN(C)C1=Nc2ccccc2C(CC(=O)NCc2ccc(F)cc2)N1c1ccc(C2CCCCC2)cc1 (stereo not given)
Activity (A549 [1]): 10.7%
fold change (FC) (A549 [2]): 0.55
Activity (A549 [3]): Dose-dependent effect
Activity (A549 [4]): 52.3%
Activity (A549 [5]): Tde
fold change (FC) (A549 [6]): 0.43
Activity (A549 [7]): 24.8%
Activity (A549 [8]): Tde
fold change (FC) (A549 [9]): 0.38
fold change (FC) [10]: 1.05
Activity (A549 [11]): 14.3%
fold change (FC) (A549 [12]): 0.51
Activity (A549 [13]): 18.5%
Activity (A549 [14]): Tde
fold change (FC) (A549 [15]): 0.71
Activity (A549 [16]): 7.9%
fold change (FC) (A549 [17]): 0.61
Activity (A549 [18]): 19.2%
Activity (A549 [19]): 18.6%
Activity (A549 [20]): 8.8%
fold change (FC) [21]: 0.3
Activity (A549 [22]): 36.9%
IC50 (A549 [23]): 7.3 µM
Activity (A549 [25]): 6.2%
fold change (FC) (A549 [26]): 0.71
Activity (A549 [27]): Dose-dependent effect
fold change (FC) (A549 [28]): 0.79
fold change (FC) [29]: 0.62
Activity (A549 [30]): Dose-dependent effect
fold change (FC) [31]: 0.68
fold change (FC) [32]: 0.76
Activity (A549 [33]): Tde
fold change (FC) (A549 [34]): 0.74
